Assay results from patent publication US7456205B2, “Benzopyran compounds, process for preparing the same and their use” (Shanghai Institute of Materia Medica, Chinese Academy of …, priority 2003, dated 2008).

Legend:
[1] = test system: 3T3-L1 cells; assay: Insulin-sensitizing activity in 3T3-L1 preadipocyte model, triglyceride accumulation as indication of cell differentiation; type: cell-based; conditions: for The Percentage of Triglyceride Increased in 3T3-L1 Cells: with IBMX, DEX and insulin, average of 3 pores (rosiglitazone n = 22, mean ± SD); for insulin-sensitizing activity: verbal summary of Table 2
Protocol: The insulin-sensitizing agents can promote the differentiation of pre-adipocytes toward adipocyte. Thus insulin-sensitizing agents could be identified with the insex of the differentiation of pre-adipocytes. Following the methods reported in the literature [Kletzein B F. Mol. Pharm. 1991, 41, 393], the insulin-sensitizing activities of the compounds of formula (I) of the present invention were evaluated in 3T3-L1 preadipocyte model with triglyceride accumulation in cells as the indication of cell differentiation.
The 3T3-L1 cells were incubated in DMEM (Dulbecco's Modified Eagle's Medium) containing 10% NBS (newborn calf serum) and subcultured every 3 days. The cells were transferred to 24-pore plates, and after the pores were filled completely, the cells were treated with IBMX (isobutylmethylxanthine) (0.5 mmol/L), DEX (dexamethasone) (1 μmol/L) and insulin (1.0 μmol/L) for 48 h, meanwhile different amounts of test compounds were added into. The cells were incubated continuously until the end of the experiment. Cells were collected and the contents of triglyceride and protein therein were determined by colorimetry. Enhancements of triglyceride in cells after drug-administrating were calculated.
The positive control group was rosiglitazone, and the solvent control group was a culturing medium containing 0.1% of DMSO. […] Thus, the derivatives of the benzopyran compounds of the present invention can be used to control the blood glucose level in type II diabetes patients and inhibit the occurrence of complications caused by the type II diabetes.

melting point [°C] | SMILES | The Percentage of Triglyceride Increased in 3T3-L1 Cells ([1]; test compound 0.01 μmol/L) [%] | The Percentage of Triglyceride Increased in 3T3-L1 Cells ([1]; test compound 0.1 μmol/L) [%] | The Percentage of Triglyceride Increased in 3T3-L1 Cells ([1]; test compound 1 μmol/L) [%] | insulin-sensitizing activity [1]
100 to 101 | COC(=O)c1cc2ccc(OCCc3ccccc3)cc2oc1=O [Compound 3, 7-(2-phenyl)ethoxyl-2-oxo-2H-1-benzopyran-3-carboxylic acid methyl ester] | 4.57 | −2.61 | −5.50 | 
 | COC(=O)C1Cc2ccc(OCc3ccc(C(F)(F)F)cc3)cc2OC1=O (centres unmarked) [Compound 14, 7-(4-trifluoromethylbenzyloxyl)-3,4-dihydro-2-oxo-4H-1-benzopyran-3-carboxylic acid methyl ester] | 19.33 | −16.81 | −2.69 | 
 | CCc1ccc(CCOc2ccc3cc(C(=O)OC)c(=O)oc3c2)nc1 [Compound 4, 7-[2-(5-ethyl-2-pyridine)ethyoxyl]-2-oxo-2H-1-benzopyran-3-carboxylic acid methyl ester] | 7.26 | 11.55 | 17.71 | 
 | CCc1ccc(CCOc2ccc3c(c2)OC(=O)C(C(=O)OC)C3)nc1 (centres unmarked) [Compound 12, 7-[2-(5-ethyl-2-pyridine)ethyoxyl]-3,4-dihydro-2-oxo-4H-1-benzopyran-3-carboxylic acid methyl ester] | 4.13 | −2.40 | 2.53 | 
 | O=C(O)c1cc2ccc(OCCc3ccccc3)cc2oc1=O [Compound 7, 7-(2-phenyl)ethoxyl-2-oxo-2H-1-benzopyran-3-carboxylic acid] | 7.97 | −1.10 | −6.29 | 
 | O=C(O)c1cc2ccc(OCc3ccccc3)cc2oc1=O [Compound 2, 7-benzyloxyl-2-oxo-2H-1-benzopyran-3-carboxylic acid] | 20.86 | 18.31 | 14.63 | 
 | COC(=O)C1Cc2ccc(OCCc3nc(-c4ccccc4)oc3C)cc2OC1=O (centres unmarked) [Compound 13, 7-[2-(5-methyl-2-phenyl-4-oxazole)ethoxyl]-3,4-dihydro-2-oxo-4H-1-benzopyran-3-carboxylic acid methyl ester] | 28.33 | 52.92 | 64.69 | stronger insulin-sensitizing activity
 | CCc1ccc(CCOc2ccc3cc(C(=O)O)c(=O)oc3c2)nc1 [Compound 8, 7-[2-(5-ethyl-2-pyridine)ethyoxyl]-2-oxo-2H-1-benzopyran-3-carboxylic acid] | 12.25 | 3.67 | 5.66 | 
 | COC(=O)C1Cc2ccc(OCCc3ccccc3)cc2OC1=O (centres unmarked) [Compound 11, 7-(2-phenyl)ethoxyl-3,4-dihydro-2-oxo-4H-1-benzopyran-3-carboxylic acid methyl ester] | −9.13 | 12.90 | 14.10 | 
 | O=C(O)c1cc2ccc(OCCn3ccc4ccccc43)cc2oc1=O [Compound 9, 7-[2-(1-indole)ethoxyl]-2-oxo-2H-1-benzopyran-3-carboxylic acid] | −5.25 | −8.42 | −12.95 | 
 | Cc1oc(-c2ccccc2)nc1CCOc1ccc2cc(C(=O)O)c(=O)oc2c1 [Compound 10, 7-[2-(5-methyl-2-phenyl-4-oxazole)ethoxyl]-2-oxo-2H-1-benzopyran-3-carboxylic acid] | −3.28 | 26.68 | 32.30 | 
 | Cc1oc(-c2ccccc2)nc1CCOc1ccc2c(c1)OC(=O)C(C(=O)O)C2 (centres unmarked) [Compound 18, 7-[2-(5-methyl-2-phenyl-4-oxazole)ethoxyl]-3,4-dihydro-2-oxo-4H-1-benzopyran-3-carboxylic acid] | 18.65 | 29.28 | 30.24 | stronger insulin-sensitizing activity
88 to 90 | COC(=O)C1Cc2ccc(OCCN(C)c3nc4ccccc4o3)cc2OC1=O (centres unmarked) [Compound 16, 7-[2-[N-methyl-N-(2-benzoxazole)amino]ethoxyl]-3,4-dihydro-2-oxo-4H-1-benzopyran-3-carboxylic acid methyl ester] | 11.01 | 29.32 | 25.09 | 
 | Cc1oc(-c2ccccc2)nc1CCOc1ccc2cc(C(=O)OC(C)(C)C)c(=O)oc2c1 [Compound 17, 7-[2-(5-methyl-2-phenyl-4-oxazole)ethoxyl]-2-oxo-2H-1-benzopyran-3-carboxylic acid tert-butyl ester] | 18.33 | 28.20 | 33.01 | stronger insulin-sensitizing activity
 | COC(=O)c1cc2ccc(OCCc3nc(-c4ccccc4)oc3C)cc2oc1=O [Compound 6, 7-[2-(5-methyl-2-phenyl-4-oxazole)ethoxyl]-2-oxo-2H-1-benzopyran-3-carboxylic acid methyl ester] | 27.04 | 67.24 | 52.45 | stronger insulin-sensitizing activity
129 to 130 | COC(=O)c1cc2ccc(OCc3ccccc3)cc2oc1=O [Compound 1, 7-benzyloxyl-2-oxo-2H-1-benzopyran-3-carboxylic acid methyl ester] | −5.73 | −0.43 | 7.93 | 
 | COC(=O)c1cc2ccc(OCCn3ccc4ccccc43)cc2oc1=O [Compound 5, 7-[2-(1-indole)ethoxyl]-2-oxo-2H-1-benzopyran-3-carboxylic acid methyl ester] | 7.88 | 27.58 | 34.74 | 

SMILES | melting point [°C] | The Percentage of Triglyceride Increased in 3T3-L1 Cells ([1]; test compound 0.01 μmol/L) [%] | The Percentage of Triglyceride Increased in 3T3-L1 Cells ([1]; test compound 0.1 μmol/L) [%] | The Percentage of Triglyceride Increased in 3T3-L1 Cells ([1]; test compound 1 μmol/L) [%] | insulin-sensitizing activity [1]
COC(=O)c1cc2ccc(OCCN(C)C(=O)OC(C)(C)C)cc2oc1=O [Compound 15, 7-[2-(N-tert-butoxycarbonyl-N-methylamino)ethoxyl]-2-oxo-2H-1-benzopyran-3-carboxylic acid methyl ester] | 128 to 129 | 26.38 | 26.73 | 44.70 | 
